Laboratory results from patent US20200108008A1, “OLAPARIB ORAL SUSTAINED AND CONTROLLED RELEASE PHARMACEUTICAL COMPOSITION AND USES THEREOF” (SHANGHAI INSTITUTE OF MATERIA MEDICA, CHINESE ACADEMY OF …, priority 2016, published 2020).

Test: Dissolution of olaparib solid dispersion versus olaparib compound powder in water under sink conditions
Type: physicochemical
Conditions: 37° C., 100 rpm
Experimental: A solid dispersion was prepared from Olaparib and copolyvidone VA64 by solvent evaporation. That is, olaparib and copolyvidone VA64 were simultaneously dissolved in ethanol/acetone (25/75, v/v), evaporated off the organic solvent under reduced pressure, dried in a vacuum drying oven, and ground and pulverized through a 60 mesh screen to be ready for tableting. For the obtained solid dispersion, in water under sink conditions at 37° C. and 100 rpm, the pharmaceutically active ingredient was dissolved out 90% or more in 30 min. However, under the same conditions, the olaparib compound powder was dissolved out less than 60% in 2h.

dissolved out in 2h: less than 60%
Structure (SMILES): O=C(c1cc(Cc2n[nH]c(=O)c3ccccc23)ccc1F)N1CCN(C(=O)C2CC2)CC1 [olaparib compound powder, 1-(cyclopropylcarboxyl)-4-[5-[(3,4-dihydro-4-oxo-1-phthalazinyl)methyl]-2-fluorobenzoyl]piperazine]
